Test results published in ChEMBL document CHEMBL3608274, “Design and synthesis of constrained analogs of LCRF-0004 as potent RON tyrosine kinase inhibitors” (Bioorg Med Chem Lett, 2015).

Key:
[1] = biological target: Hepatocyte growth factor receptor (Homo sapiens, UniProt P08581); experiment: Inhibition of human c-Met
[2] = biological target: Macrophage-stimulating protein receptor (Homo sapiens, UniProt Q04912); experiment: Inhibition of human RON
Sequence of Macrophage-stimulating protein receptor (Q04912 25-304 limits assumed): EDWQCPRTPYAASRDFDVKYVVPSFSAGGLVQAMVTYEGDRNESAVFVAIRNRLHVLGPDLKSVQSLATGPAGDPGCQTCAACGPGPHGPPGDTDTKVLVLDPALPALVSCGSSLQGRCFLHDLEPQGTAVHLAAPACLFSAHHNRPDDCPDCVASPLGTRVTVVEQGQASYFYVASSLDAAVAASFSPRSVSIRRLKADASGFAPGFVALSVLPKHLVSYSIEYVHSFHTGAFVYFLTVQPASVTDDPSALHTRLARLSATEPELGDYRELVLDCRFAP
Sequence of Macrophage-stimulating protein receptor (Q04912 310-1400 limits assumed): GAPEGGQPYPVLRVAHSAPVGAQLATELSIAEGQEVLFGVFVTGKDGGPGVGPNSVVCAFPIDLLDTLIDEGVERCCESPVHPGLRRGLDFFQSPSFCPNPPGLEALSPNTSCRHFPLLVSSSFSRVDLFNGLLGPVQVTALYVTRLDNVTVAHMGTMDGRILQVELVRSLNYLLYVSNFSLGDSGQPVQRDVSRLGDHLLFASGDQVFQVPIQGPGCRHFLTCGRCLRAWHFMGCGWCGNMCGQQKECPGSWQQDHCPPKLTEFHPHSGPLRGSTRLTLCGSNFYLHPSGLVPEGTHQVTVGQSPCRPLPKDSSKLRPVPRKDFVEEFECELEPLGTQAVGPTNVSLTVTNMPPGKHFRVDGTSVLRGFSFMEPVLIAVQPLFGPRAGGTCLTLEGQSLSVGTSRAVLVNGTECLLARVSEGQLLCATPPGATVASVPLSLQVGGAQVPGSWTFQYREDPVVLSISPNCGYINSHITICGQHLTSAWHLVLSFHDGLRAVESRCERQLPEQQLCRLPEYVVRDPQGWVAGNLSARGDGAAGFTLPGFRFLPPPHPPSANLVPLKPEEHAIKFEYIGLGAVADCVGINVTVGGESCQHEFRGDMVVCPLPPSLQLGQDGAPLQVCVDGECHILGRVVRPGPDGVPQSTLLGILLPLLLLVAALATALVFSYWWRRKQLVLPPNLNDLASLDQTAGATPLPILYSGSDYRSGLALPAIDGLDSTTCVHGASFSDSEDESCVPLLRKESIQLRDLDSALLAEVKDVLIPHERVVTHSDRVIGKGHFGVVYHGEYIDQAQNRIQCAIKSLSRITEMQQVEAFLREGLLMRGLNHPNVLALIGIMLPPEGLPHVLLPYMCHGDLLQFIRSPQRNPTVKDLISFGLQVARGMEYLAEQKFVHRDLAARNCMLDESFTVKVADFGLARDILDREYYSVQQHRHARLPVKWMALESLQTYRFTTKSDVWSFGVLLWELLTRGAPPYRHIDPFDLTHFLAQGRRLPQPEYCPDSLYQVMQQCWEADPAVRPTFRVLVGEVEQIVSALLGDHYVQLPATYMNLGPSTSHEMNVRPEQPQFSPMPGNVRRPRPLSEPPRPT

Sequence of Hepatocyte growth factor receptor (P08581 whole entry): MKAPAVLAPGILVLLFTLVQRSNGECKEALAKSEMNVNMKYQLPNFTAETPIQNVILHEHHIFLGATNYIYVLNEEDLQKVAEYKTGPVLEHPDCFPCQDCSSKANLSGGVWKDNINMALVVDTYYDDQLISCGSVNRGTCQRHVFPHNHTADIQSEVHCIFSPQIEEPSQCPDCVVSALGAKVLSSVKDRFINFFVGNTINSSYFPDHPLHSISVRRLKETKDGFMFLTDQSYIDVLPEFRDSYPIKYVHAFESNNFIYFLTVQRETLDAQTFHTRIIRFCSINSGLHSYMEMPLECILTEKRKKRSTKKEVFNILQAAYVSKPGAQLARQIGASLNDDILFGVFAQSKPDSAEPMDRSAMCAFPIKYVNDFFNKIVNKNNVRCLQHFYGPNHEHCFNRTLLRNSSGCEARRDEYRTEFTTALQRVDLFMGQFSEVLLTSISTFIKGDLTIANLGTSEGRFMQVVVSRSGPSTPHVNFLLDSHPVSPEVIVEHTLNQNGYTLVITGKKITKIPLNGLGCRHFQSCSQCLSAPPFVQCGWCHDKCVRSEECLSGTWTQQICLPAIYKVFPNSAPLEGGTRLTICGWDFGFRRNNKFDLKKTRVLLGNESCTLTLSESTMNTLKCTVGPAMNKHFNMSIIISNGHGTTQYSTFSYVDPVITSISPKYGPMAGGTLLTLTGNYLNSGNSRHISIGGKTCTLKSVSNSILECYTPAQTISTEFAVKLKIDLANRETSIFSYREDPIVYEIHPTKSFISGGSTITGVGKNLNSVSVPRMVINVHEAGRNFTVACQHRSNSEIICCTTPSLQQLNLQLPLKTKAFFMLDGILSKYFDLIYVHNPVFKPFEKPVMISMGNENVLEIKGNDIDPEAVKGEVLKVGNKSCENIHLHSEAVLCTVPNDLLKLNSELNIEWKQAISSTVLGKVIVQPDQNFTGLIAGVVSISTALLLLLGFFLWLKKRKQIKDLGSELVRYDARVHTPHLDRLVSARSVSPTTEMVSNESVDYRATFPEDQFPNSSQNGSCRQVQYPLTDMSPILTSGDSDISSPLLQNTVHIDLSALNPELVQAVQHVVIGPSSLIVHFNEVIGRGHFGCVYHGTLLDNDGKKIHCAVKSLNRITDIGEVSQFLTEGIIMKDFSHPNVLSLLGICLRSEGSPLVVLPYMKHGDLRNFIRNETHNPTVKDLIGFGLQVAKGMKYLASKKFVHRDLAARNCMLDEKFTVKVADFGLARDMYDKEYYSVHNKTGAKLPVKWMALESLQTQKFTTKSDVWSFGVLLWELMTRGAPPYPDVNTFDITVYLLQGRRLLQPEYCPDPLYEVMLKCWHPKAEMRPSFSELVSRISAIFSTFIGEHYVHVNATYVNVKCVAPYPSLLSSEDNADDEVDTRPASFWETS

IC50 [1]: 12 nM
IC50 [2]: 10 nM
SMILES: Cn1cnc(-c2cc3nccc(Oc4ccc(NC(=O)c5cnn(-c6ccccc6)c5C(F)(F)F)cc4F)c3s2)c1
